Results: patent publication US9981944B2, “GDF-8 inhibitors” (Rigel Pharmaceuticals, Inc., priority 2015, dated 2018)

Experiments:
[1] = molecular target: HIS-TGFβR2 WT (Homo sapiens (Human), UniProt P37173); experiment: HTRF probe displacement assay, HIS-TGFβR2 WT; format: binding; details: 1 nM HIS-TGFβR2 WT, 1 hour at room temperature, read-out: TGFBR2WT IC50
Protocol: (§1) Compounds were dissolved at 10 mM in dimethylsulfoxide (DMSO) and evaluated at eleven concentrations. IC50 values were derived by non-linear regression analysis.

[2] = molecular target: HIS-TGFβR1 T204D (Homo sapiens (Human), UniProt P36897, T204D); experiment: HTRF probe displacement assay, HIS-TGFβR1 T204D; format: binding; details: 1 nM HIS-TGFβR1 T204D, 1 hour at room temperature, read-out: TGFBR1T204D IC50
HIS-TGFβR1 T204D, sequence (P36897 34-503 T204D): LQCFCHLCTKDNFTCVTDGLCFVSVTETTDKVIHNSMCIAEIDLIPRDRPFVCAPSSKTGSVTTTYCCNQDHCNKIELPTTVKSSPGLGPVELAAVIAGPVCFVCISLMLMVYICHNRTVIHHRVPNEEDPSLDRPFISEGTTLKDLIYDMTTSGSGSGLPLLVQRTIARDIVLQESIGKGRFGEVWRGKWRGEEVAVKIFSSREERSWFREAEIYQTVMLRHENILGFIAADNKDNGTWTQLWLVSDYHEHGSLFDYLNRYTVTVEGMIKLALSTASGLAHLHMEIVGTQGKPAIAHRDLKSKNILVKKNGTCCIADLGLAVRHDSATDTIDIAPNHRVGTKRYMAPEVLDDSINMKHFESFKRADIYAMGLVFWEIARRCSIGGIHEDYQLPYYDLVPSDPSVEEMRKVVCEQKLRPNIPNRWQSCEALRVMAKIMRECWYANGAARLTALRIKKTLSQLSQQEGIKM
Protocol: as §1

HIS-TGFβR2 WT, sequence (P37173 23-567): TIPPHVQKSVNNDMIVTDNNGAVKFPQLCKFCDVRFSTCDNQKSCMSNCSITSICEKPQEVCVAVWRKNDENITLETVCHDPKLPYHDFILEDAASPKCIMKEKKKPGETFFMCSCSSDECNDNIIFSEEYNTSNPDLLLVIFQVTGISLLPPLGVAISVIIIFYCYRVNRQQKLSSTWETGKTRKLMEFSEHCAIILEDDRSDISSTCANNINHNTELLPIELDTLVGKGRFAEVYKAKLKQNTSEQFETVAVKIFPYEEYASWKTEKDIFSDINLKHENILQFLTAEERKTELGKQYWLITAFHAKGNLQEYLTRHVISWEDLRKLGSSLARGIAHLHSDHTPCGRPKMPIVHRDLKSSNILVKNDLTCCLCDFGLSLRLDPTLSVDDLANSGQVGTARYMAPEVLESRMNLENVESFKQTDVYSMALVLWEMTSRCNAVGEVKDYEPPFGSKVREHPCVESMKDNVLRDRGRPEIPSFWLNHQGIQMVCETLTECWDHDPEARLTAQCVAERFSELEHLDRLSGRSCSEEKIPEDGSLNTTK

Row | Structure (SMILES) | IC50 [1] | IC50 [2]
1 | N#Cc1cnc2ccc(-c3cccnc3-c3cc(F)ccn3)cn12 [Compound 16, 6-(4′-fluoro-[2,2′-bipyridin]-3-yl)imidazo[1,2-a]pyridine-3-carbonitrile] | > 15000 nM | 207 nM
2 | Cc1nc(-c2ncccc2-c2ccc3ncc(C#N)n3n2)ccc1F [Compound 61, 6-(5′-fluoro-6′-methyl-[2,2′-bipyridin]-3-yl)imidazo[1,2-b]pyridazine-3-carbonitrile] | > 15000 nM | 32 nM
3 | Cc1cccc(-c2ncccc2-c2ccc3ncc(NC(=O)C(F)(F)F)n3c2)n1 [Compound 66, 2,2,2-trifluoro-N-(6-(6′-methyl-[2,2′-bipyridin]-3-yl)imidazo[1,2-a]pyridin-3-yl)acetamide] | > 15000 nM | 37 nM
4 | NC(=O)c1cnc2ccc(-c3cccnc3-c3cccc(C(F)F)n3)nn12 [Compound 52, 6-(6′-(difluoromethyl)-[2,2′-bipyridin]-3-yl)imidazo[1,2-b]pyridazine-3-carboxamide] | > 15000 nM | 30 nM
5 | CC(C)c1cccc(-c2ncccc2-c2ccc3ncc(C(N)=O)n3c2)n1 [Compound 32, 6-(6′-isopropyl-[2,2′-bipyridin]-3-yl)imidazo[1,2-a]pyridine-3-carboxamide] | > 15000 nM | 16 nM
6 | COc1cccc(-c2ncccc2-c2ccc3ncc(C(N)=O)n3c2)n1 [Compound 33, 6-(6′-methoxy-[2,2′-bipyridin]-3-yl)imidazo[1,2-a]pyridine-3-carboxamide] | – | 1 nM
7 | COc1cccc(-c2ncccc2-c2ccc3ncc(C(N)=O)n3n2)n1 [Compound 51, 6-(6′-methoxy-[2,2′-bipyridin]-3-yl)imidazo[1,2-b]pyridazine-3-carboxamide] | > 15000 nM | 21 nM
8 | CCc1cccc(-c2ncccc2-c2ccc3ncc(C#N)n3c2)n1 [Compound 30, 6-(6′-ethyl-[2,2′-bipyridin]-3-yl)imidazo[1,2-a]pyridine-3-carbonitrile] | > 15000 nM | –
9 | CC(C)c1cccc(-c2ncccc2-c2ccc3ncc(C(N)=O)n3n2)n1 [Compound 64, 6-(6′-isopropyl-[2,2′-bipyridin]-3-yl)imidazo[1,2-b]pyridazine-3-carboxamide] | > 15000 nM | 563 nM
10 | Cc1ccc(-c2ncccc2-c2ccc3ncc(C(N)=O)n3n2)nc1 [Compound 56, 6-(5′-methyl-[2,2′-bipyridin]-3-yl)imidazo[1,2-b]pyridazine-3-carboxamide] | > 15000 nM | 5300 nM
11 | NC(=O)c1cnc2ccc(-c3cccnc3-c3ccc(F)cn3)cn12 [Compound 21, 6-(5′-fluoro-[2,2′-bipyridin]-3-yl)imidazo[1,2-a]pyridine-3-carboxamide] | – | 5 nM
12 | NC(=O)c1cnc2ccc(-c3cccnc3-c3cc(F)ccn3)cn12 [Compound 22, 6-(4′-fluoro-[2,2′-bipyridin]-3-yl)imidazo[1,2-a]pyridine-3-carboxamide] | – | 5 nM
13 | NC(=O)c1cnc2ccc(-c3cccnc3-c3cccc(F)n3)cn12 [Compound 37, 6-(6′-fluoro-[2,2′-bipyridin]-3-yl)imidazo[1,2-a]pyridine-3-carboxamide] | – | 4 nM
14 | NC(=O)c1cnc2ccc(-c3cccnc3-c3ccc(F)c(C(F)F)n3)cn12 [Compound 24, 6-(6′-(difluoromethyl)-5′-fluoro-[2,2′-bipyridin]-3-yl)imidazo[1,2-a]pyridine-3-carboxamide] | > 15000 nM | –
15 | Cc1nc(-c2ncccc2-c2ccc3ncc(C(N)=O)n3c2)ccc1F [Compound 19, 6-(5′-fluoro-6′-methyl-[2,2′-bipyridin]-3-yl)imidazo[1,2-a]pyridine-3-carboxamide] | – | 1 nM
16 | NC(=O)c1cnc2ccc(-c3cccnc3-c3ccccn3)cn12 [Compound 39, 6-([2,2′-bipyridin]-3-yl)imidazo[1,2-a]pyridine-3-carboxamide] | – | 6 nM

The next lines start with the values.

Row | IC50 [1] | IC50 [2] | Structure (SMILES)
17 | > 15000 nM | 211 nM | Cc1nc(-c2ncccc2-c2ccn3ncc(C(=O)O)c3n2)ccc1F [Compound 131, 5-(5′-fluoro-6′-methyl-[2,2′-bipyridin]-3-yl)pyrazolo[1,5-a]pyrimidine-3-carboxylic acid]
18 | > 15000 nM | 137 nM | O=C(O)c1cnn2ccc(-c3cccnc3-c3cccc(C(F)(F)F)n3)nc12 [Compound 124, 5-(6′-(trifluoromethyl)-[2,2′-bipyridin]-3-yl)pyrazolo[1,5-a]pyrimidine-3-carboxylic acid]
19 | > 15000 nM | 12 nM | Cc1nc(-c2ncccc2-c2ccc3nccnc3c2)ccc1F [Compound 112, 6-(5′-fluoro-6′-methyl-[2,2′-bipyridin]-3-yl)quinoxaline]
20 | > 15000 nM | 1 nM | CC(=O)Nc1cn2cc(-c3cccnc3-c3cccc(C)n3)ccc2n1 [Compound 76, N-(6-(6′-methyl-[2,2′-bipyridin]-3-yl)imidazo[1,2-a]pyridin-2-yl)acetamide]
21 | > 15000 nM | 11100 nM | CC(=O)Nc1ccnc(-c2cccc(C)n2)c1-c1ccc2ncc(C#N)n2c1 [Compound 100, N-(3-(3-cyanoimidazo[1,2-a]pyridin-6-yl)-6′-methyl-[2,2′-bipyridin]-4-yl)acetamide]
22 | > 15000 nM | 2 nM | Nc1ncnc2ccc(-c3cccnc3-c3cccc(C(F)F)n3)cc12 [Compound 109, 6-(6′-(difluoromethyl)-[2,2′-bipyridin]-3-yl)quinazolin-4-amine]
23 | > 15000 nM | 652 nM | COC(=O)c1ccnc(-c2cccc(C)n2)c1-c1ccc2ncc(C#N)n2c1 [Compound 91, methyl 3-(3-cyanoimidazo[1,2-a]pyridin-6-yl)-6′-methyl-[2,2′-bipyridine]-4-carboxylate]
24 | > 15000 nM | 13 nM | Cc1ccc(-c2ccc3ncc(C(N)=O)n3c2)c(-c2cccc(C(F)F)n2)n1 [Compound 88, 6-(6′-(difluoromethyl)-6-methyl-[2,2′-bipyridin]-3-yl)imidazo[1,2-a]pyridine-3-carboxamide]
25 | > 15000 nM | 3 nM | FC(F)c1cccc(-c2ncccc2-c2ccc3[nH]ncc3c2)n1 [Compound 115, 5-(6′-(difluoromethyl)-[2,2′-bipyridin]-3-yl)-1H-indazole]
26 | – | 4 nM | Cc1cccc(-c2ncc(N)cc2-c2ccc3ncc(C(=O)O)n3c2)n1 [Compound 99, 6-(5-amino-6′-methyl-[2,2′-bipyridin]-3-yl)imidazo[1,2-a]pyridine-3-carboxylic acid]
27 | – | 2 nM | Cc1nc(-c2ncc(F)cc2-c2ccc3ncc(C(N)=O)n3c2)ccc1F [Compound 85, 6-(5,5′-difluoro-6′-methyl-[2,2′-bipyridin]-3-yl)imidazo[1,2-a]pyridine-3-carboxamide]
28 | – | 1 nM | Cc1cccc(-c2ncc(F)cc2-c2ccc3ncc(C(N)=O)n3c2)n1 [Compound 82, 6-(5-fluoro-6′-methyl-[2,2′-bipyridin]-3-yl)imidazo[1,2-a]pyridine-3-carboxamide]
29 | – | 2 nM | Cc1cccc(-c2ncc(N)cc2-c2ccc3ncc(C(N)=O)n3c2)n1 [Compound 98, 6-(5-amino-6′-methyl-[2,2′-bipyridin]-3-yl)imidazo[1,2-a]pyridine-3-carboxamide]
30 | – | 5 nM | CC(=O)Nc1cnc(-c2cccc(C)n2)c(-c2ccc3ncc(C(N)=O)n3c2)c1 [Compound 97, 6-(5-acetamido-6′-methyl-[2,2′-bipyridin]-3-yl)imidazo[1,2-a]pyridine-3-carboxamide]
